ChEMBL document CHEMBL5625204, “Synthesis and pharmacodynamic evaluation of naphthalene derivatives against influenza A virus in vitro and in vivo” (Eur J Med Chem, 2023)
Active and inactive are the calls of the source. No cut-off for these calls is given here.

How the values were obtained:
[1] = test system: Influenza A virus; experiment: Antiviral activity against Influenza A virus H1N1 (A/Weiss/43)-infected in BALB/c mouse assessed as reduction in lung index at 25 mg/kg/day administered intranasally for 6 days starting from 3 hrs post-viral infection; assay type: functional; settings: 144 h, route nas, time 6 day
[2] = test system: Influenza A virus; experiment: Inhibition of Influenza A virus replication infected in dog MDCK cells assessed as downregulation of virus M gene expression at 25 to 50 uM measured after 24 to 72 hrs post-infection by qRT-PCR analysis; assay type: functional, organism-based; settings: dose 25-50 µM
[3] = test system: Influenza A virus; experiment: Inhibition of Influenza A virus replication infected in dog MDCK cells assessed as downregulation of virus NP gene expression at 25 to 50 uM measured after 24 to 72 hrs post-infection by qRT-PCR analysis; assay type: functional, organism-based; settings: dose 25-50 µM
[4] = test system: Erythrocyte; experiment: Inhibition of Hemagglutinin2 in Influenza A virus assessed as inhibition of virus-induced hemolysis at 7.81 to 250 uM pretreated with virus for 30 mins followed by chicken RBC addition and measured after 30 mins; assay type: cell-based; settings: dose 7.81-250 µM, time 60.0 min
[5] = test system: Influenza A virus; experiment: Inhibition of Influenza A virus Neuraminidase at 100 to 300 uM pretreated with enzyme for 5 mins followed by fluorogenic substrate addition and measured for 1 hr by fluorescence based analysis; settings: dose 100-300 µM, time 65.0 min
[6] = Selectivity index, ratio of CC50 for dog MDCK cells to EC50 for antiviral activity against Influenza A virus H1N1 (A/Weiss/43) infected in MDCK cells treated for 2 hrs during viral adsorption and measured after 72 hrs; assay type: toxicity, cell-based; settings: read-out: Ratio CC50/EC50
[7] = Toxicity in BALB/c mouse infected with Influenza A virus H1N1 (A/Weiss/43) assessed as liver pathological changes at 25 to 100 mg/kg/day administered intranasally for 6 days starting from 3 hrs post-viral infection by Hematoxylin-Eosin staining based analysis; assay type: organism-based; settings: in vivo, inhaled_or_intranasal, 144 h, dose 25-100 mg/kg/day, time 6 day
[8] = test system: MDCK; experiment: Cytotoxicity against dog MDCK cells assessed as cell pathological changes at 50 uM by microscopic analysis; assay type: toxicity, cell-based, Canis lupus familiaris
[9] = test system: Influenza A virus; experiment: Antiviral activity against Influenza A virus H1N1 (A/Weiss/43)-infected in BALB/c mouse assessed as reduction in lung index at 100 mg/kg/day administered intranasally for 6 days starting from 3 hrs post-viral infection; assay type: functional; settings: 144 h, route nas, time 6 day
[10] = test system: Influenza A virus; experiment: Antiviral activity against Influenza A virus H1N1 (A/Weiss/43)-infected in BALB/c mouse assessed as reduction in lung index at 50 mg/kg/day administered intranasally for 6 days starting from 3 hrs post-viral infection; assay type: functional; settings: 144 h, route nas, time 6 day
[11] = test system: Influenza A virus; experiment: Antiviral activity against Influenza A virus H1N1 (A/Virginia/ATCC2/2009) infected in MDCK cells assessed as reduction of viral replication incubated for 72 hrs by TCID50 method; assay type: functional, organism-based
[12] = test system: Influenza A virus; experiment: Inhibition of Influenza A virus replication infected in dog MDCK cells assessed as downregulation of virus NP protein expression by measuring decrease in green fluorescence intensity at 25 to 50 uM measured after 24 hrs by immunofluorescence analysis; assay type: functional, organism-based; settings: dose 25-50 µM
[13] = test system: Influenza A virus; experiment: (§1) Antiviral activity against Influenza A virus H1N1 (A/Weiss/43)-infected in dog MDCK cells assessed as reduction in oxidative stress by measuring proportion of cells with excessive ROS accumulation at 25 uM treated at 2 hrs post-infection and measured after 36 hrs by DCFH-DA staining based flow cytometry (reference value: 30.6%); assay type: functional; parameters: scale not given: the % may be the effect or the level left
[14] = test system: Influenza A virus; experiment: as §1, with “50” for “25”; assay type: functional; parameters: scale not given: the % may be the effect or the level left
[15] = Toxicity in dog MDCK cells assessed as ROS production by measuring proportion of normal cells at 50 uM measured after 36 hrs by DCFH-DA staining based flow cytometry (reference value: 99.9%); assay type: cell-based, Canis lupus familiaris
[16] = test system: Influenza A virus; experiment: Antiviral activity against Influenza A virus H1N1 infected in human A549 cells assessed as decrease in apoptosis by measuring decrease in Bax to Bcl-2 ratio at 25 to 50 uM measured after 24 hrs by western blot analysis; assay type: functional, organism-based; settings: dose 25-50 µM
[17] = test system: Influenza A virus; experiment: Antiviral activity against Influenza A virus H1N1 infected in dog MDCK cells assessed as decrease in apoptosis by measuring proportion of viable cells at 25 uM measured after 72 hrs by AnnexinV-FITC/PI staining based flow cytometry (reference value: 62.9%); assay type: functional
[18] = test system: Influenza A virus; experiment: Antiviral activity against Influenza A virus H1N1 infected in dog MDCK cells assessed as decrease in apoptosis by measuring proportion of early apoptotic cells at 25 uM measured after 72 hrs by AnnexinV-FITC/PI staining based flow cytometry (reference value: 24.3%); assay type: functional; parameters: scale not given: the % may be the effect or the level left
[19] = test system: Influenza A virus; experiment: Antiviral activity against Influenza A virus H1N1 infected in dog MDCK cells assessed as decrease in apoptosis by measuring proportion of viable cells at 50 uM measured after 72 hrs by AnnexinV-FITC/PI staining based flow cytometry (reference value: 62.9%); assay type: functional
[20] = test system: Influenza A virus; experiment: Antiviral activity against Influenza A virus H1N1 infected in dog MDCK cells assessed as decrease in apoptosis by measuring proportion of early apoptotic cells at 50 uM measured after 72 hrs by AnnexinV-FITC/PI staining based flow cytometry (reference value: 24.3%); assay type: functional; parameters: scale not given: the % may be the effect or the level left
[21] = Toxicity in dog MDCK cells assessed as proportion of necrotic cells at 50 uM measured after 72 hrs by AnnexinV-FITC/PI staining based flow cytometry (reference value: 1.4%); assay type: cell-based, Canis lupus familiaris
[22] = test system: Influenza A virus; experiment: Antiviral activity against Influenza A virus H1N1 infected in human A549 cells assessed as decrease in incompleted autophagy by measuring increase in p62 protein expression at 25 to 50 uM measured after 24 hrs by western blot analysis; assay type: functional, organism-based; settings: dose 25-50 µM
[23] = test system: Influenza A virus; experiment: Antiviral activity against Influenza A virus H1N1 infected in human A549 cells assessed as decrease in RIG-1 pathway related protein expression by measuring decrease in NF-kappaB p65 protein expression at 25 to 50 uM measured after 24 hrs by western blot analysis; assay type: functional, organism-based; settings: dose 25-50 µM
[24] = test system: Influenza A virus; experiment: Antiviral activity against Influenza A virus H1N1 infected in human A549 cells assessed as decrease in RIG-1 pathway related gene expression by measuring decrease in IRF3 gene expression at 25 to 50 uM measured after 24 hrs by qRT-PCR analysis; assay type: functional, organism-based; settings: dose 25-50 µM
[25] = test system: Influenza A virus; experiment: Antiviral activity against Influenza A virus H1N1 infected in human A549 cells assessed as decrease in RIG-1 pathway related gene expression by measuring decrease in IRF7 gene expression at 25 to 50 uM measured after 24 hrs by qRT-PCR analysis; assay type: functional, organism-based; settings: dose 25-50 µM
[26] = test system: Influenza A virus; experiment: Antiviral activity against Influenza A virus H1N1 infected in human A549 cells assessed as decrease in cytokine gene expression by measuring decrease in IL-8 gene expression at 25 to 50 uM measured after 24 hrs by qRT-PCR analysis; assay type: functional, organism-based; settings: dose 25-50 µM
[27] = test system: Influenza A virus; experiment: Antiviral activity against Influenza A virus H1N1 (A/Weiss/43)-infected in BALB/c mouse assessed as reduction in Mx1 gene expression in lungs at 25 to 100 mg/kg/day administered intranasally for 6 days starting from 3 hrs post-viral infection by qRT-PCR analysis; assay type: functional, organism-based; settings: dose 25-100 mg/kg/day, route nas, time 6.0 day
[28] = test system: Influenza A virus; experiment: Antiviral activity against Influenza A virus H1N1 (A/Weiss/43)-infected in BALB/c mouse assessed as reduction in IFN-beta gene expression in lungs at 25 to 100 mg/kg/day administered intranasally for 6 days starting from 3 hrs post-viral infection by qRT-PCR analysis; assay type: functional, organism-based; settings: dose 25-100 mg/kg/day, route nas, time 6.0 day

SMILES: O=[N+]([O-])c1ccc(S(=O)(=O)N(Cc2ccccc2)c2cccc3ccccc23)cc1
- inhibition in vivo at 25 mg/kg/day [1]: 20.6%
- inhibition [2]: Active
- inhibition [3]: Active
- inhibition [4]: inactive
- inhibition [5]: inactive
- selectivity ratio at 72 h [6]: > 131
- Activity [7]: Non-Toxic
- Activity [8]: Non-Toxic
- inhibition in vivo at 100 mg/kg/day [9]: 43.3%
- inhibition in vivo at 50 mg/kg/day [10]: 28.8%
- EC50 [11]: 3.34 µM
- inhibition [12]: Active
- Activity [13]: 12.3%
- Activity [14]: 4.66%
- Activity [15]: 98.6%
- inhibition [16]: Active
- Activity [17]: 95.4%
- Activity [18]: 2.55%
- Activity [19]: 95.4%
- Activity [20]: 2.93%
- Activity [21]: 0.82%
- inhibition [22]: Active
- inhibition [23]: Active
- inhibition [24]: Active
- inhibition [25]: Active
- inhibition [26]: Active
- Activity [27]: Active
- Activity [28]: Active
